{"source": "patent US20240043661A1", "about": "“CYCLODEXTRIN DIMERS AND USES THEREOF” (UNDERDOG PHARMACEUTICALS, INC., priority 2020, published 2024)", "key": {"[1]": {"experiment": "In vitro solubility assay (turbidity assay) with 7KC", "type": "physicochemical", "details": "300 μM sterol, 3% ethanol in PBS, 30 mins at 37C, absorbance at 350 nm", "protocol": "(§1) Greater affinity for one compound than another, e.g., greater affinity for 7KC than cholesterol, may be determined using a “turbidity test” performed on an aqueous suspension containing 3% ethanol, 300 uM sterol, in PBS and 1 mM of the CD to be tested. This single concentration of CD is used in order to standardize the test results. To perform the test, the samples are incubated for 30 mins at 37C, and then absorbance at 350 nm is measured, e.g., using a spectrophotometer plate reader. Relative turbidity is determined by dividing the measured turbidity in the presence of the CD to the baseline turbidity without the CD. A given CD has greater affinity for 7KC than cholesterol if the relative turbidity of the 7KC suspension is lower than the relative turbidity of the cholesterol solution.\n(§2) Sterol stock solutions (including cholesterol and 7KC) were suspended in 100% ethanol. Final concentration of suspensions: 3% ethanol, 300 μM sterol, in PBS with various concentrations of CDs."}, "[2]": {"experiment": "In vitro solubility assay (turbidity assay) with cholesterol", "type": "physicochemical", "details": "300 μM sterol, 3% ethanol in PBS, 30 mins at 37C, absorbance at 350 nm", "protocol": "as §1, §2"}}, "data": [{"molecule": "OC[C@H]1O[C@@H]2O[C@H]3[C@H](O)[C@@H](O)[C@@H](O[C@H]4[C@H](O)[C@@H](O)[C@@H](O[C@H]5[C@H](O)[C@@H](O)[C@@H](O[C@H]6[C@H](O)[C@@H](O)[C@@H](O[C@H]7[C@H](O)[C@@H](O)[C@@H](O[C@H]1[C@H](O)[C@H]2O)O[C@@H]7CO)O[C@@H]6CO)O[C@@H]5CO)O[C@@H]4CO)O[C@@H]3CO", "note": "[native αCD]", "values": [{"measurement": "solubilization / binding of 7KC (turbidity)", "setting": "[1]", "result": "low affinity for 7KC and cholesterol"}, {"measurement": "specificity for 7KC over cholesterol (turbidity)", "setting": "[1]", "result": "no specificity"}, {"measurement": "solubilization / binding of cholesterol (turbidity)", "setting": "[2]", "result": "low affinity for 7KC and cholesterol"}]}]}
